{"source": "patent US9662318B2", "about": "“Bitopic muscarinic agonists and antagonists and methods of synthesis and use thereof” (BARRY UNIVERSITY, INC., priority 2012, dated 2017)", "key": {"[1]": {"biological_target": "T1, M4 muscarinic receptor (Homo sapiens, UniProt P08173)", "T1 construct": "host or cells: Chinese hamster ovary cells", "T1 sequence (P08173 1-479)": "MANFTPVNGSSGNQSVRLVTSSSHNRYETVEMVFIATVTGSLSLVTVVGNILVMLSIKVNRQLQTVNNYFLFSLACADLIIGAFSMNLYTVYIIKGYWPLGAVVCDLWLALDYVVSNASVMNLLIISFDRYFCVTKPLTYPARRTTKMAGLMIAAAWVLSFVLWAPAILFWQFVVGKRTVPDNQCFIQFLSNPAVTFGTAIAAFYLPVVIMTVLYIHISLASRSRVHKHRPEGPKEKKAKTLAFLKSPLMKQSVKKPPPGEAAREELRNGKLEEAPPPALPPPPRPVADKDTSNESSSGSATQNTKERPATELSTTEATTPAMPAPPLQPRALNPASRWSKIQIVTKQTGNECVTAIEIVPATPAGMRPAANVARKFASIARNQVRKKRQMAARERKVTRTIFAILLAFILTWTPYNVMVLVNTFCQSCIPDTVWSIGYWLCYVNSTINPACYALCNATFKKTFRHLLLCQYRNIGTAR", "experiment": "biochemical", "format": "binding", "details": "competition with [^3H]QNB"}, "[2]": {"system": "M1-M5 muscarinic receptors", "experiment": "Competition with [3H]NMS, statements over all subtypes", "format": "binding, human", "details": "competition experiments, all M1-M5"}, "[3]": {"biological_target": "T2, M3 muscarinic receptor (Homo sapiens, UniProt P20309)", "T2 construct": "host or cells: Chinese hamster ovary cells", "T2 sequence (P20309 whole entry)": "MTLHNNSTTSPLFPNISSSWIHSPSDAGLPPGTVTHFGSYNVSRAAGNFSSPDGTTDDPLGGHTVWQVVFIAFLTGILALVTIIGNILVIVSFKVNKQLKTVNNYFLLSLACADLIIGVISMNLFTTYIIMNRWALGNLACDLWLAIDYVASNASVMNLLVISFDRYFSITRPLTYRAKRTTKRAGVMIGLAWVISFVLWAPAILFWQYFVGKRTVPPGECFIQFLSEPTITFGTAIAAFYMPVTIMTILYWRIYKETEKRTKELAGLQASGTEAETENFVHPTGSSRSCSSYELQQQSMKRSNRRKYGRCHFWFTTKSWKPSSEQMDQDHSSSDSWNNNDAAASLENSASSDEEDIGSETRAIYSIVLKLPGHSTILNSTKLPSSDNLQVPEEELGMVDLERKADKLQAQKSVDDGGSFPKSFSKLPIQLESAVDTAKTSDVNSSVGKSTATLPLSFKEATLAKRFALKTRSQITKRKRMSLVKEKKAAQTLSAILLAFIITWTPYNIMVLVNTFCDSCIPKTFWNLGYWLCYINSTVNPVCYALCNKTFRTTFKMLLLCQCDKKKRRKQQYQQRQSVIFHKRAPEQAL", "experiment": "Dissociation of [3H]NMS (full time course kinetics)", "format": "binding", "details": "[^3H]NMS dissociation", "text": "(§1) To probe the ability of JB-D4 to allosterically modulate orthosteric ligand, its effect on the rate of orthosteric radioligand dissociation has been investigated. […] Eq. 1 was fitted to the data from kinetic experiments. Data are means±SD from 3 independent experiments performed in quadruplicates. Equations: y=(100-f2)*e^(-Koff1*X)+f2*e^(-Koff2*X) (Eq. 1) where y is the percentage of radioligand binding at time x of radioligand binding at time 0, koff1 and koff2 are rate dissociation constants and f2 is the percentage of sites with koff2 rate of dissociation. […]. 2)"}, "[4]": {"biological_target": "T3, M5 muscarinic receptor (Homo sapiens, UniProt P08912)", "T3 construct": "host or cells: CHO (Chinese hamster ovary) cells, stably transfected", "T3 sequence (P08912 1-532)": "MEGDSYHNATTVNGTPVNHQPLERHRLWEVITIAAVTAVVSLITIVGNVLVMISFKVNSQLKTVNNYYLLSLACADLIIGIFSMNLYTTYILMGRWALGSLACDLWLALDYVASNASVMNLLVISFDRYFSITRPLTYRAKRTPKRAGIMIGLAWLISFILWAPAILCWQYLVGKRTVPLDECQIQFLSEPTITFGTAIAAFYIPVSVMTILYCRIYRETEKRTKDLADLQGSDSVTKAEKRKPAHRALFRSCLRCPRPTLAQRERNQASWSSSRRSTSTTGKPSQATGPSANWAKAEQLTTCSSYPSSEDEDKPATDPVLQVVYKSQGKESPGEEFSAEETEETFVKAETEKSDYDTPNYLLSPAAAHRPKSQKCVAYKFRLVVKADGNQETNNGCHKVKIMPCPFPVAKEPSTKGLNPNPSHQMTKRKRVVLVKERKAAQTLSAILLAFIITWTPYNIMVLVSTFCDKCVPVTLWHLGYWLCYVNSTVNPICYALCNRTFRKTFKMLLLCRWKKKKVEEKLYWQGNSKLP", "experiment": "Dissociation of [3H]NMS (full time course kinetics)", "format": "binding", "details": "[^3H]NMS dissociation, +0.1 mM JB-D4, M5", "text": "as §1"}, "[5]": {"biological_target": "T1, M4 muscarinic receptor", "experiment": "Dissociation of [3H]NMS (full time course kinetics)", "format": "binding", "details": "[^3H]NMS dissociation", "text": "as §1"}, "[6]": {"biological_target": "T2, M3 muscarinic receptor", "experiment": "Accumulation of inositol phosphates in CHO cells", "format": "cell-based", "details": "ligand 0.1 mM, no carbachol", "experimental": "Chinese hamster ovary cells stably transfected with the genes of human variants of muscarinic receptors were purchased from Missouri S&T cDNA Resource Center (Rolla, Mo., USA). […] Cells were grown to confluency in 75 cm^2 flasks in Dulbecco's modified Eagle's medium supplemented with 10% fetal bovine serum and 2 million of cells were subcultured to 100 mm Petri dishes. Medium was supplemented with 5 mM butyrate for the last 24 hours of cultivation to increase receptor expression.\nInositolphosphates formation was determined in cells pre-labeled overnight by 0.5 μM [^3H]myo-inositol in 0.3 mL of DMEM (3 μCi/ml) at 37° C. […] Incubation was stopped by removal of incubation buffer and addition 0.2 mL 20% trichloracetic acid (TCA). After 1 h incubation at 4° C., 100 μL, of TCA extracts were taken for measurement. Rest of the TCA was removed, and TCA precipitates were washed with 200 μL TCA and dissolved in 200 μL of 1 M NaOH. After 1 h incubation at 4° C., 100 μL, of NaOH lysates were taken for measurement. Radioactivity in TCA extracts and NaOH lysates were determined by liquid scintillation counting. The rate of inositolphosphates accumulation was calculated as a percentage of the soluble (released) inositolphosphates from the total incorporated radioactivity (sum of radioactivity in NaOH lysates and TCA extracts).\nEC50 values are expressed as negative logarithms and EMAX values as folds over basal, Table 7."}, "[7]": {"biological_target": "T4, M1 muscarinic receptor (Homo sapiens, UniProt P11229)", "T4 sequence (P11229 1-460)": "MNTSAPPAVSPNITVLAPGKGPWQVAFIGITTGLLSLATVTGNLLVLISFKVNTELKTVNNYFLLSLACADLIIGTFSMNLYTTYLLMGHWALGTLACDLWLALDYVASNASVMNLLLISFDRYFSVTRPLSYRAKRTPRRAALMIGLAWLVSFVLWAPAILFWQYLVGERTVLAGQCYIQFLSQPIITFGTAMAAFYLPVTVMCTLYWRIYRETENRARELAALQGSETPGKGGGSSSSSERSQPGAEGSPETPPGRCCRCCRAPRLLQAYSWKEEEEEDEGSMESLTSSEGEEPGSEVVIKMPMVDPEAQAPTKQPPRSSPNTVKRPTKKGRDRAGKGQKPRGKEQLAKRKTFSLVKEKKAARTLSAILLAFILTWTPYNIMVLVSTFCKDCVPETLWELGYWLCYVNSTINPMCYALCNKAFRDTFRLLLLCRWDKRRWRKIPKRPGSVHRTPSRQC", "experiment": "Dissociation of [3H]acetylcholine (full time course kinetics)", "format": "binding", "details": "[3H]acetylcholine dissociation", "text": "(§2) To probe the ability of JB-D4 to allosterically modulate orthosteric ligand, its effect on the rate of orthosteric radioligand dissociation has been investigated. […] where y is the percentage of radioligand binding at time x of radioligand binding at time 0, koff1 and koff2 are rate dissociation constants and f2 is the percentage of sites with koff2 rate of dissociation. […] y is the percentage of radioligand binding at time x of radioligand binding at time 0, koff is rate dissociation constant and f is percentage of sites with koff rate of dissociation. Eq. 2 was fitted to the data from kinetic experiments. Data are means±SD from 3 independent experiments performed in quadruplicates."}, "[8]": {"biological_target": "T2, M3 muscarinic receptor", "experiment": "Dissociation of [3H]acetylcholine (full time course kinetics)", "format": "binding", "details": "[3H]acetylcholine dissociation", "text": "as §2"}, "[9]": {"biological_target": "T3, M5 muscarinic receptor", "experiment": "Dissociation of [3H]acetylcholine (full time course kinetics)", "format": "binding", "details": "[3H]acetylcholine dissociation", "text": "as §2"}, "[10]": {"biological_target": "T1, M4 muscarinic receptor", "experiment": "Dissociation of [3H]acetylcholine (full time course kinetics)", "format": "binding", "details": "[3H]acetylcholine dissociation", "text": "as §2"}}, "note": "Where two headings read alike, the source gives them in different places."}
{"molecule": "CCCCOc1ccc(C(=O)OCC[N+]2(C)CCCCC2)cc1.[I-]", "note": "[JB-D4, 2-(N-piperidineethyl) p-butoxybenzoate N-methyl iodide]", "values": [{"measurement": "Ki", "setting": "[1]; M4", "value": 3.08, "unit": "µM"}, {"measurement": "IC50", "setting": "[1]; M4, average of 3, read-out: avg IC50", "value": 27.1, "unit": "µM"}, {"measurement": "IC50", "setting": "[1]; M4, experiment 1, read-out: IC50—1", "value": 20.6, "unit": "µM"}, {"measurement": "IC50", "setting": "[1]; M4, experiment 2, read-out: IC50—2", "value": 32.6, "unit": "µM"}, {"measurement": "IC50", "setting": "[1]; M4, experiment 3, read-out: IC50—3", "value": 28.1, "unit": "µM"}, {"measurement": "inhibition of [^3H]NMS binding", "setting": "[2]", "value": "fully inhibit"}, {"measurement": "koff1", "setting": "[3]; +0.1 mM JB-D4, M3", "value": "0.000114 ± 8.3e-06", "unit": "s⁻¹"}, {"measurement": "koff1", "setting": "[3]; +1 mM JB-D4, M3", "value": "2.36e-05 ± 2.2e-06", "unit": "s⁻¹"}, {"measurement": "koff1", "setting": "[4]", "value": "5e-05 ± 2.8e-06", "unit": "s⁻¹"}, {"measurement": "koff1", "setting": "[5]; +0.1 mM JB-D4, M4", "value": "0.000106 ± 8.3e-06", "unit": "s⁻¹"}, {"measurement": "koff1", "setting": "[5]; +1 mM JB-D4, M4", "value": "2.11e-05 ± 1.7e-06", "unit": "s⁻¹"}, {"measurement": "Effect of ligands on basal activity (accumulation of inositol phosphates as percent of accumulation in the absence of the ligand)", "setting": "[6]", "value": "102 ± 2", "unit": "%"}, {"measurement": "f", "setting": "[7]; +0.1 mM JB-D4, M1", "value": "90 ± 3", "unit": "%"}, {"measurement": "koff", "setting": "[7]; +0.1 mM JB-D4, M1", "value": 0.00317, "unit": "s⁻¹"}, {"measurement": "f", "setting": "[7]; +1 mM JB-D4, M1", "value": "88 ± 3", "unit": "%"}, {"measurement": "koff", "setting": "[7]; +1 mM JB-D4, M1", "value": 0.00183, "unit": "s⁻¹"}, {"measurement": "f", "setting": "[8]; +0.1 mM JB-D4, M3", "value": "84 ± 3", "unit": "%"}, {"measurement": "koff", "setting": "[8]; +0.1 mM JB-D4, M3, read-out: koff (converted)", "value": 0.00317, "unit": "s⁻¹"}, {"measurement": "f", "setting": "[8]; +1 mM JB-D4, M3", "value": "82 ± 3", "unit": "%"}, {"measurement": "koff", "setting": "[8]; +1 mM JB-D4, M3", "value": "0.0014 ± 0.00012", "unit": "s⁻¹"}, {"measurement": "koff", "setting": "[8]; +1 mM JB-D4, M3, read-out: koff (converted)", "value": 0.0014, "unit": "s⁻¹"}, {"measurement": "f", "setting": "[9]; +0.1 mM JB-D4, M5", "value": "81 ± 3", "unit": "%"}, {"measurement": "koff", "setting": "[9]; +0.1 mM JB-D4, M5, read-out: koff (converted)", "value": 0.000633, "unit": "s⁻¹"}, {"measurement": "f", "setting": "[9]; +1 mM JB-D4, M5", "value": "81 ± 3", "unit": "%"}, {"measurement": "koff", "setting": "[9]; +1 mM JB-D4, M5", "value": "0.00055 ± 8.3e-05", "unit": "s⁻¹"}, {"measurement": "koff", "setting": "[9]; +1 mM JB-D4, M5, read-out: koff (converted)", "value": 0.00055, "unit": "s⁻¹"}, {"measurement": "f", "setting": "[10]; +0.1 mM JB-D4, M4", "value": "81 ± 4", "unit": "%"}, {"measurement": "koff", "setting": "[10]; +0.1 mM JB-D4, M4", "value": 0.003, "unit": "s⁻¹"}, {"measurement": "f", "setting": "[10]; +1 mM JB-D4, M4", "value": "86 ± 3", "unit": "%"}, {"measurement": "koff", "setting": "[10]; +1 mM JB-D4, M4", "value": 0.000817, "unit": "s⁻¹"}]}
